Results taken from US20240342185A1, “SMALL MOLECULES INHIBITORS OF CYCLIC GMP-AMP SYNTHASE (cGAS)” (priority 2021, published 2024).
Read-outs that look alike come from different tables or passages of the source.

Columns and labels:
[1] = system: TREX1 KO THP-1 ISG Luc cells; assay: cells; assay type: cell-based; settings: Homo sapiens, cell viability, 48 h, read-out: CTG IC50
[2] = system: THP-1 ISG Luc cells; assay: cells; assay type: cell-based; settings: Homo sapiens, THP-1, 48 h, read-out: CTG IC50
[3] = system: TREX1 KO THP-1 ISG Luc cells; assay: cells; assay type: cell-based; settings: Homo sapiens, 48 h, read-out: ISRE-Luc IC50
[4] = molecular target: cGAS (Homo sapiens, UniProt Q8N884); assay: cell-based
cGAS, sequence (Q8N884 whole entry): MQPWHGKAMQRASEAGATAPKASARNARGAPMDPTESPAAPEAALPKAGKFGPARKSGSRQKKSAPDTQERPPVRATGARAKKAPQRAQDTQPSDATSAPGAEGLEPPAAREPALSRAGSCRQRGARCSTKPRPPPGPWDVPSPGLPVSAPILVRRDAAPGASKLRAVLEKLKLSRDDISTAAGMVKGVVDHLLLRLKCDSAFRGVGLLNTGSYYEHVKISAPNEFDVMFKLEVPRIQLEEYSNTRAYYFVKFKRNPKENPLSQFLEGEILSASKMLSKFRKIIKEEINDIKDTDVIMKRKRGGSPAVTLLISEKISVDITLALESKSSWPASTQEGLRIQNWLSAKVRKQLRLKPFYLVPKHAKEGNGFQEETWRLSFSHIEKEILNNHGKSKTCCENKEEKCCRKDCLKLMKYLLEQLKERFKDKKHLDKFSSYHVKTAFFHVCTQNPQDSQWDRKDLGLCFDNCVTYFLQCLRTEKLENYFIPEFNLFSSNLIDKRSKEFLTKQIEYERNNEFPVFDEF

With `Nc1cc(C2CCN(C(=O)c3cc4ccccc4[nH]3)CC2)no1` [Compound 2, (4-(5-aminoisoxazol-3-yl)piperidin-1-yl)(1H-indol-2-yl)methanone] the IC50 [1] was > 10000 nM, the IC50 [2] was > 10000 nM and the IC50 [3] was 950 nM. It also gave an IC50 [4] of 890 nM.
